Data reported in US6358885B1, “Substituted phenylheterocyclic herbicides” (Mississippi State University, priority 1992, dated 2002).

Key:
duck salad = test: Test C flood test plant response rating 0 to 100; assay type: in vivo, Heteranthera limosa; settings: flood test species listed under POSTEMERGENCE, 0 to 100 scale
Source text: (§1) The compounds evaluated in this test were formulated in a non-phytoxic solvent and applied to the soil surface before plant seedlings emerged (preemergence application), to water that covered the soil surface (flood application), and to plants that were in the one-to-four leaf stage (postemergence application). A sandy loam soil was used for the preemergence and postemergence tests, while a silt loam soil was used in the flood test. Water depth was approximately 2.5 cm for the flood test and was maintained at this level for the duration of the test. Plant species in the preemergence and postemergence tests consisted of barley (Hordeum vulgare), bedstraw (Galium aparine), blackgrass (Alopecurus myosuroides), chickweed (Stellaria media), corn (Zea mays), cotton (Gossypium hirsutum), crabgrass (Digitaria sanguinalis), downy brome (Bromus tectorum), giant foxtail (Setaria faberii), lambsquarters (Chenopodium album), morningglory (Ipomoea hederacea), pigweed ([…]), rape (Brassica napus), ryegrass (Lolium multiflorum), sorghum (Sorghum bicolor), soybean (Glycine max), speedwell (Veronica persica), sugar beet (Beta vulgaris), velvetleaf (Abutilon theophrasti), wheat (Triticum aestivum), wild buckwheat (Polygonum convolvulus), and wild oat (Avena fatua). All plant species were planted one day before application of the compound for the preemergence portion-of this test. Plantings of these species were adjusted to produce plants of appropriate size for the post-emergence portion of the test. […] All plant species were grown using normal greenhouse practices. Visual evaluations of injury expressed on treated plants, when compared to untreated controls, were recorded approximately fourteen to twenty one days after application of the test compound. […] A dash (-) response means no test result.

chickweed = test: Test B preemergence/postemergence greenhouse plant response rating 0 to 10; assay type: in vivo, Stellaria media; settings: for Plant response rating, Chickweed: 0 to 10 scale
Summary of the method: (§2)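 Test chemicals, dissolved in a non-phytotoxic solvent, were applied to soil at planting and, at the same time, over foliage of seedlings at the one to four leaf stage.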

wild buckwheat = test: as above; assay type: in vivo, Polygonum convolvulus; settings: 0 to 10 scale
Summary of the method: as §2

sugar beet = test: as above; assay type: in vivo, Beta vulgaris; settings: 0 to 10 scale
Summary of the method: as §2

morningglory = test: Test C preemergence/postemergence greenhouse plant response rating 0 to 100; assay type: in vivo, Ipomoea hederacea; settings: for Plant response rating, Morningglory: 0 to 100 scale
Source text: as §1

downy brome = test: as above; assay type: in vivo, Bromus tectorum; settings: for Plant response rating Downy Brome: 0 to 100 scale
Source text: as §1

cotton = test: as above; assay type: in vivo, Gossypium hirsutum; settings: for Plant response rating, Cotton: 0 to 100 scale
Source text: as §1

sorghum = test: as above; assay type: in vivo, Sorghum bicolor; settings: for Plant response rating, Sorghum: 0 to 100 scale
Source text: as §1

wild oat = test: as above; assay type: in vivo, Avena fatua; settings: for Plant response rating, Wild oat: 0 to 100 scale
Source text: as §1

C#CCOc1cc(-c2nn3c(c2Br)CCCC3)c(F)cc1Cl [Compound 26]
70: Plant response rating Duck salad (duck salad; 62 g/ha) | Plant response rating, Morningglory (morningglory; POSTEMERGENCE, 62 g/ha) | Plant response rating (0 to 100), Morningglory (morningglory; Rate 16 g/ha, POSTEMERGENCE) | Plant response rating Downy Brome (downy brome; POSTEMERGENCE, 250 g/ha)
90: Plant response rating Duck salad (duck salad; 250 g/ha)
10: Plant response rating (0 to 10 scale), Chickweed (chickweed; POSTEMERGENCE, Rate 50 g/ha) | Plant response rating, Chickweed (chickweed; POSTEMERGENCE, Rate 200 g/ha) | Plant response rating, Chickweed (chickweed; PREEMERGENCE, Rate 50 g/ha) | Plant response rating, Chickweed (chickweed; Rate 200 g/ha, PREEMERGENCE) | Plant response rating, Wild buckwheat (wild buckwheat; POSTEMERGENCE, Rate 50 g/ha) | Plant response rating, Wild buckwheat (wild buckwheat; POSTEMERGENCE, Rate 200 g/ha) | Plant response rating, Wild buckwheat (wild buckwheat; Rate 200 g/ha, PREEMERGENCE) | Plant response rating, Sugar beet (sugar beet; POSTEMERGENCE, Rate 50 g/ha) | Plant response rating, Sugar beet (sugar beet; POSTEMERGENCE, Rate 200 g/ha) | Plant response rating, Sugar beet (sugar beet; Rate 200 g/ha, PREEMERGENCE)
0: Plant response rating (0 to 100), Morningglory (morningglory; PREEMERGENCE, Rate 4 g/ha) | Plant response rating (0 to 100), Morningglory (morningglory; Rate 16 g/ha, PREEMERGENCE) | Plant response rating Downy Brome (downy brome; PREEMERGENCE, 62 g/ha) | Plant response rating (0 to 100), Downy Brome (downy brome; PREEMERGENCE, Rate 4 g/ha) | Plant response rating (0 to 100), Downy Brome (downy brome; Rate 16 g/ha, PREEMERGENCE) | Plant response rating, Cotton (cotton; PREEMERGENCE, 62 g/ha) | Plant response rating (0 to 100), Cotton (cotton; PREEMERGENCE, Rate 4 g/ha) | Plant response rating (0 to 100), Cotton (cotton; Rate 16 g/ha, PREEMERGENCE) | Plant response rating (0 to 100), Sorghum (sorghum; PREEMERGENCE, Rate 4 g/ha) | Plant response rating (0 to 100), Wild oat (wild oat; PREEMERGENCE, Rate 4 g/ha) | Plant response rating (0 to 100), Wild oat (wild oat; Rate 16 g/ha, PREEMERGENCE)
40: Plant response rating (0 to 100), Downy Brome (downy brome; Rate 16 g/ha, POSTEMERGENCE)
9: Plant response rating, Sugar beet (sugar beet; PREEMERGENCE, Rate 50 g/ha)
7: Plant response rating, Wild buckwheat (wild buckwheat; PREEMERGENCE, Rate 50 g/ha)
30: Plant response rating (0 to 100), Sorghum (sorghum; Rate 16 g/ha, POSTEMERGENCE) | Plant response rating, Wild oat (wild oat; POSTEMERGENCE, 62 g/ha) | Plant response rating, Wild oat (wild oat; PREEMERGENCE, 250 g/ha) | Plant response rating (0 to 100), Wild oat (wild oat; Rate 16 g/ha, POSTEMERGENCE)
100: Plant response rating, Morningglory (morningglory; POSTEMERGENCE, 250 g/ha) | Plant response rating, Morningglory (morningglory; PREEMERGENCE, 250 g/ha) | Plant response rating, Cotton (cotton; POSTEMERGENCE, 62 g/ha) | Plant response rating, Cotton (cotton; POSTEMERGENCE, 250 g/ha) | Plant response rating (0 to 100), Cotton (cotton; POSTEMERGENCE, Rate 4 g/ha) | Plant response rating, Cotton (cotton; PREEMERGENCE, 250 g/ha) | Plant response rating (0 to 100), Cotton (cotton; Rate 16 g/ha, POSTEMERGENCE)
20: Plant response rating, Morningglory (morningglory; PREEMERGENCE, 62 g/ha) | Plant response rating (0 to 100), Downy Brome (downy brome; POSTEMERGENCE, Rate 4 g/ha) | Plant response rating Downy Brome (downy brome; PREEMERGENCE, 250 g/ha) | Plant response rating (0 to 100), Sorghum (sorghum; POSTEMERGENCE, Rate 4 g/ha) | Plant response rating (0 to 100), Sorghum (sorghum; Rate 16 g/ha, PREEMERGENCE) | Plant response rating (0 to 100), Wild oat (wild oat; POSTEMERGENCE, Rate 4 g/ha)
50: Plant response rating (0 to 100), Morningglory (morningglory; POSTEMERGENCE, Rate 4 g/ha) | Plant response rating Downy Brome (downy brome; POSTEMERGENCE, 62 g/ha) | Plant response rating, Sorghum (sorghum; POSTEMERGENCE, 62 g/ha) | Plant response rating, Sorghum (sorghum; POSTEMERGENCE, 250 g/ha) | Plant response rating, Sorghum (sorghum; PREEMERGENCE, 250 g/ha) | Plant response rating, Wild oat (wild oat; POSTEMERGENCE, 250 g/ha)
